Data: patent US8802720B2, “Acylamino-substituted fused cyclopentanecarboxylic acid derivatives and their use as pharmaceuticals” (SANOFI, priority 2008, dated 2014)

target: human Edg-2 receptor (LPA1 receptor) (Homo sapiens, UniProt Q92633); assay: Edg-2 receptor inhibition by FLIPR calcium fluorescence measurement (LPA-mediated calcium liberation); assay type: cell-based; details: CHO cells stably overexpressing human Edg-2 receptor; LPA 18:1 100 nM; fluo-4 fluorescence; triplicate; read-out: Inhibitory concentrations IC50 for inhibition of the Edg-2 receptor
Procedure, shortened: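 CHO cells stably overexpressing human Edg-2 were fluo-4 loaded and pre-incubated ~5 min with compound (≤0.3% DMSO) in HBSS/HEPES/probenecid, pH 7.5. Then LPA 18:1 at 100 nM final was added. Peak calcium fluorescence over ~3 min, baseline-corrected versus DMSO, gave % inhibition in triplicate and IC50.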

Sequence of human Edg-2 receptor (LPA1 receptor) (Q92633 whole entry): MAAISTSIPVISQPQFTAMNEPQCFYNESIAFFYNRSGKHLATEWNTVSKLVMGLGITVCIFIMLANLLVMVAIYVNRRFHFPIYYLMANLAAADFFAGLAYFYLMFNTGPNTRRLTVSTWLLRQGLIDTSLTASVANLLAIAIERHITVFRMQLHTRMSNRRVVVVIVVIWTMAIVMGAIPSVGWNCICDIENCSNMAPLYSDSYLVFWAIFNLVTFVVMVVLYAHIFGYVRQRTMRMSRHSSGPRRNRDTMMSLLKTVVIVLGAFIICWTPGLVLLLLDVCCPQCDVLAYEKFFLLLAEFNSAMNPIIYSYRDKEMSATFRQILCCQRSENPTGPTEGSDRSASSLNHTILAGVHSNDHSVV

IC50 [nM] | Compound
1000 to 30000 | COc1ccc(C(=O)NC2(C(=O)O)Cc3ccccc3C2)cc1OCCC1CCCC(C)C1 (stereo not drawn) [Example 278, 2-{4-Methoxy-3-[2-(3-methyl-cyclohexyl)-ethoxy]-benzoylamino}-indane-2-carboxylic acid]
100 to 1000 | COc1ccc(C(=O)NC2(C(=O)O)Cc3ccccc3C2)cc1COCc1cccc(C)c1 [Example 279, 2-[4-Methoxy-3-(3-methyl-benzyloxymethyl)-benzoylamino]-indane-2-carboxylic acid]
100 to 1000 | COc1ccc(C(=O)NC2(C(=O)O)Cc3ccccc3C2)cc1-c1ccc(Cl)cc1 [Example 280]
1000 to 30000 | COc1ccc(C(=O)NC2(C(=O)O)Cc3ccccc3C2)cc1-c1ccccc1Cl [Example 281]
100 to 1000 | COc1ccc(C(=O)NC2(C(=O)O)Cc3ccccc3C2)cc1-c1cncc(Cl)c1 [Example 282, 2-[3-(5-chloro-pyridin-3-yl)-4-methoxy-benzoylamino]-indane-2-carboxylic acid]
1000 to 30000 | COc1ccc(C(=O)NC2(C(=O)O)Cc3ccccc3C2)cc1-c1cccc(C#N)n1 [Example 283]
< 100 | COc1ccc(C(=O)NC2(C(=O)O)Cc3ccccc3C2)cc1-c1cncc(C#N)c1 [Example 284]
< 100 | COc1ccc(C(=O)NC2(C(=O)O)Cc3ccccc3C2)cc1-c1cccc(C)c1 [Example 286]
100 to 1000 | COc1ccc(C(=O)NC2(C(=O)O)Cc3ccccc3C2)cc1-c1cccc(NC(C)=O)c1 [Example 287]
100 to 1000 | CCOc1cccc(-c2cc(C(=O)NC3(C(=O)O)Cc4ccccc4C3)ccc2OC)c1 [Example 288]
100 to 1000 | COc1ccc(C(=O)NC2(C(=O)O)Cc3ccccc3C2)cc1-c1cc(C(F)(F)F)ccc1Cl [Example 289]
1000 to 30000 | CCCc1ccc(-c2cc(C(=O)NC3(C(=O)O)Cc4ccccc4C3)ccc2OC)cc1 [Example 290]
100 to 1000 | COc1ccc(C(=O)NC2(C(=O)O)Cc3ccccc3C2)cc1-c1ccc(C)c(C)c1 [Example 291]
< 100 | COc1ccc(C(=O)NC2(C(=O)O)Cc3ccccc3C2)cc1-c1ccc(Cl)c(Cl)c1 [Example 292]
< 100 | COc1ccc(C(=O)NC2(C(=O)O)Cc3ccccc3C2)cc1-c1cccc(Cl)c1Cl [Example 293]
< 100 | COc1ccc(C(=O)NC2(C(=O)O)Cc3ccccc3C2)cc1-c1cc(C)c(OC)c(C)c1 [Example 294]
< 100 | COc1ccc(C(=O)NC2(C(=O)O)Cc3ccccc3C2)cc1-c1csc2ccccc12 [Example 295]
< 100 | COc1ccc(Cl)cc1-c1cc(C(=O)NC2(C(=O)O)Cc3ccccc3C2)ccc1OC [Example 296]
< 100 | COc1ccc(C(=O)NC2(C(=O)O)Cc3ccccc3C2)cc1-c1cccc(C#N)c1 [Example 297]
1000 to 30000 | COc1ccc(C(=O)NC2(C(=O)O)Cc3ccccc3C2)cc1-c1ccccc1CN(C)C [Example 299]
100 to 1000 | COc1ccc(C(=O)NC2(C(=O)O)Cc3ccccc3C2)cc1-c1cc(C)cs1 [Example 300]
< 100 | COc1ccc(C(=O)NC2(C(=O)O)Cc3ccccc3C2)cc1-c1cccc(SC)c1 [Example 301]
< 100 | COc1ccc(C(=O)NC2(C(=O)O)Cc3ccccc3C2)cc1-c1cccc(OC(F)(F)F)c1 [Example 302]
< 100 | COc1ccc(C(=O)NC2(C(=O)O)Cc3ccccc3C2)cc1-c1cc(Cl)ccc1Cl [Example 303]

IC50 [nM] | Compound
< 100 | COc1ccc(F)cc1-c1cc(C(=O)NC2(C(=O)O)Cc3ccccc3C2)ccc1OC [Example 304]
100 to 1000 | COc1ccc(C(=O)NC2(C(=O)O)Cc3ccccc3C2)cc1-c1cccc(OCc2ccccc2)c1 [Example 305]
< 100 | COc1ccc(C(=O)NC2(C(=O)O)Cc3ccccc3C2)cc1-c1cc(F)c(F)c(F)c1 [Example 306]
< 100 | COc1ccc(C(=O)NC2(C(=O)O)Cc3ccccc3C2)cc1-c1cccc(NS(C)(=O)=O)c1 [Example 307]
< 100 | CCSc1cccc(-c2cc(C(=O)NC3(C(=O)O)Cc4ccccc4C3)ccc2OC)c1 [Example 308]
100 to 1000 | COc1ccc(C(=O)NC2(C(=O)O)Cc3ccccc3C2)cc1-c1cccc(S(C)(=O)=O)c1 [Example 309]
100 to 1000 | COc1ccc(C(=O)NC2(C(=O)O)Cc3ccccc3C2)cc1-c1ccc(Cl)c(C(F)(F)F)c1 [Example 310]
100 to 1000 | CCS(=O)(=O)c1cccc(-c2cc(C(=O)NC3(C(=O)O)Cc4ccccc4C3)ccc2OC)c1 [Example 312, 2-[(3′-ethanesulfonyl-6-methoxy-biphenyl-3-carbonyl)-amino]-indane-2-carboxylic acid]
< 100 | COc1ccc(C(=O)NC2(C(=O)O)Cc3ccccc3C2)cc1-c1cc(C)cc(C(C)(C)C)c1 [Example 313]
< 100 | COc1ccc(C(=O)NC2(C(=O)O)Cc3ccccc3C2)cc1-c1cc(Cl)ccc1C [Example 314]
< 100 | COCc1cccc(-c2cc(C(=O)NC3(C(=O)O)Cc4ccccc4C3)ccc2OC)c1 [Example 315]
100 to 1000 | COCc1ccccc1-c1cc(C(=O)NC2(C(=O)O)Cc3ccccc3C2)ccc1OC [Example 316]
100 to 1000 | COc1ccc(C(=O)NC2(C(=O)O)Cc3ccccc3C2)cc1-c1cc(C)c(C)cc1C [Example 317]
< 100 | CCCOc1cccc(-c2cc(C(=O)NC3(C(=O)O)Cc4ccccc4C3)ccc2OC)c1 [Example 318]
100 to 1000 | COc1ccc(C(=O)NC2(C(=O)O)Cc3ccccc3C2)cc1-c1cccc(OC(C)C)c1 [Example 319]
< 100 | COc1ccc(C(=O)NC2(C(=O)O)Cc3ccccc3C2)cc1-c1cc(C(F)(F)F)ccc1F [Example 320]
1000 to 30000 | CCCOc1ccc(-c2cc(C(=O)NC3(C(=O)O)Cc4ccccc4C3)ccc2OC)cc1Cl [Example 321]
< 100 | COc1ccc(C(=O)NC2(C(=O)O)Cc3ccccc3C2)cc1-c1ccc(C(F)(F)F)c(Cl)c1 [Example 322]
1000 to 30000 | CNC(=O)c1cccc(-c2cc(C(=O)NC3(C(=O)O)Cc4ccccc4C3)ccc2OC)c1 [Example 323]
1000 to 30000 | COc1ccc(C(=O)NC2(C(=O)O)Cc3ccccc3C2)cc1-c1cccc(OCC2CC2)c1 [Example 324]
< 100 | COc1ccc(-c2cc(C(=O)NC3(C(=O)O)Cc4ccccc4C3)ccc2OC)cc1Cl [Example 325]
100 to 1000 | COc1ccc(C(=O)NC2(C(=O)O)Cc3ccccc3C2)cc1-c1ccc2occc2c1 [Example 326]
< 100 | COc1ccc(C(=O)NC2(C(=O)O)Cc3ccccc3C2)cc1-c1cccc(Cl)c1C [Example 327]
100 to 1000 | COc1ccc(C(=O)NC2(C(=O)O)Cc3ccccc3C2)cc1-c1cccc(CCC(=O)O)c1 [Example 328]

IC50 [nM] | Compound
1000 to 30000 | COc1ccc(C(=O)NC2(C(=O)O)Cc3ccccc3C2)cc1-c1ccsc1Cl [Example 329]
1000 to 30000 | COc1ccc(C(=O)NC2(C(=O)O)Cc3ccccc3C2)cc1-c1ccc2c(ccn2C)c1 [Example 330]
100 to 1000 | CCOc1ccc2ccccc2c1-c1cc(C(=O)NC2(C(=O)O)Cc3ccccc3C2)ccc1OC [Example 331]
100 to 1000 | COc1ccc(C(=O)NC2(C(=O)O)Cc3ccccc3C2)cc1-c1cc(Cl)ccc1F [Example 332]
< 100 | COc1ccc(C(=O)NC2(C(=O)O)Cc3ccccc3C2)cc1-c1cc(Cl)cc(C)c1F [Example 333]
100 to 1000 | COc1ccc(C(=O)NC2(C(=O)O)Cc3ccccc3C2)cc1-c1cccc(-n2cccn2)c1 [Example 334]
< 100 | COc1ccc(C(=O)NC2(C(=O)O)Cc3ccccc3C2)cc1-c1cc(F)ccc1OC(C)C [Example 335]
1000 to 30000 | COc1ccc(C(=O)NC2(C(=O)O)Cc3ccccc3C2)cc1-c1cc(OC(C)C)ccc1F [Example 336]
< 100 | COc1ccc(C(=O)NC2(C(=O)O)Cc3ccccc3C2)cc1-c1cc(F)cc(C(F)(F)F)c1 [Example 337]
1000 to 30000 | COc1ccc(C(=O)NC2(C(=O)O)Cc3ccccc3C2)cc1-c1cccc(CN(C)C)c1 [Example 338]
100 to 1000 | COc1ccc(C(=O)NC2(C(=O)O)Cc3ccccc3C2)cc1-c1cccc(CNC(C)=O)c1 [Example 339]
100 to 1000 | CCOc1ccc(-c2cc(C(=O)NC3(C(=O)O)Cc4ccccc4C3)ccc2OC)cc1C [Example 340]
1000 to 30000 | COc1ccc(C(=O)NC2(C(=O)O)Cc3ccccc3C2)cc1-c1ccc(OC(C)C)c(C)c1 [Example 341]
< 100 | COc1ccc(C(=O)NC2(C(=O)O)Cc3ccccc3C2)cc1-c1cc(F)cc(Cl)c1 [Example 342]
< 100 | COc1ccc(C(=O)NC2(C(=O)O)Cc3ccccc3C2)cc1-c1cc(F)cc(OC(C)C)c1 [Example 343]
100 to 1000 | COc1ccc(C(=O)NC2(C(=O)O)Cc3ccccc3C2)cc1-c1cc(F)cc(OCC(C)C)c1 [Example 344]
< 100 | COc1ccc(C(=O)NC2(C(=O)O)Cc3ccccc3C2)cc1-c1ccc(F)c(C(F)(F)F)c1 [Example 345]
100 to 1000 | COc1ccc(C(=O)NC2(C(=O)O)Cc3ccccc3C2)cc1-c1cccc(OCC(F)(F)F)c1 [Example 346]
< 100 | COc1ccc(C(=O)NC2(C(=O)O)Cc3ccccc3C2)cc1-c1cc(Cl)cc(C(F)(F)F)c1 [Example 347]
< 100 | COc1ccc(C(=O)NC2(C(=O)O)Cc3ccccc3C2)cc1-c1cccc(C(F)(F)F)c1F [Example 348]
< 100 | COc1cc(-c2cc(C(=O)NC3(C(=O)O)Cc4ccccc4C3)ccc2OC)cc(C(F)(F)F)c1 [Example 349]
1000 to 30000 | COc1ccc(C(=O)NC2(C(=O)O)Cc3ccccc3C2)cc1-c1cccc(NC(=O)C(C)C)c1 [Example 350]
< 100 | COc1ccc(C(=O)NC2(C(=O)O)Cc3ccccc3C2)cc1-c1cc(Cl)ccc1C(F)(F)F [Example 351]
< 100 | COc1ccc(C(=O)NC2(C(=O)O)Cc3ccccc3C2)cc1OCCc1cc(Cl)ccc1Cl [Example 352]
